Columns and labels:
Mandelate racemase [1] = molecular target: T1, Mandelate racemase (Pseudomonas putida, UniProt P11444); test: Inhibitory activity against Mandelate racemase at pH 8.7 at 25 degree C
T1 sequence (P11444 whole entry): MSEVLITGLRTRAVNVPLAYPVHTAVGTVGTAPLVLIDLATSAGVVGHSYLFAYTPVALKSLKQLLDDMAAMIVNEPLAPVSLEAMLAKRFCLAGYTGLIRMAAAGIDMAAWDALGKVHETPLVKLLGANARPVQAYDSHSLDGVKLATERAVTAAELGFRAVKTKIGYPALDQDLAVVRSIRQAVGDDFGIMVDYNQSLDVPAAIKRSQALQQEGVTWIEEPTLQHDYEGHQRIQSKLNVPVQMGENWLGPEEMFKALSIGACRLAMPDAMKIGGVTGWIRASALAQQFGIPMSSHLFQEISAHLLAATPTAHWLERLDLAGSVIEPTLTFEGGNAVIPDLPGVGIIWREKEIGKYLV

Mandelate racemase [2] = molecular target: T1, Mandelate racemase; test: Inhibitory activity against Mandelate racemase at pH 6.3 at 25 degree C
Mandelate racemase [3] = molecular target: T1, Mandelate racemase; test: Inhibitory activity against Mandelate racemase at pH 7.5 at 25 degree C

- Ki (Mandelate racemase [1]): 6.93 mM
- Ki (Mandelate racemase [2]): 5.91 mM
- Ki (Mandelate racemase [3]): 1.41 mM
SMILES: O=P(O)(O)C(O)(c1ccccc1)c1ccccc1
